# Source: US20070224167A1, “Novel HCV inhibitor combinations and methods” (priority 2006, published 2007)
# Experiments:
# [1] = test system: GAPDH RNA, Huh7 BB7 replicon cells; experiment: GAPDH RNA in genotype 1b (BB7) replicon cells; assay type: cell-based; settings: Homo sapiens, Huh-7, 72 h, read-out: GAPDH EC50
# Procedure: (§1) HCV genotype 1b, BB7 replicon-containing cell line is derived from a human hepatoma cell line (Huh7). A genotype 1a (H77 isolate; GenBank Accession #AF009606) is derived from replicon-containing cell line (Huh7-1a). The cell lines are cultured at 37° C. and 5% CO2 in Dulbecco's Modified Eagle Media (D-MEM; Invitrogen #11965-084) containing 10% fetal bovine serum (FBS; HyClone #SH300070) supplemented with 1% penicillin/streptomycin (Invitrogen #15140-122), 1% non-essential amino acids (Invitrogen #11140-050), 0.66 mM HEPES buffer, pH 7.55 (Invitrogen #15630-080), and 1 mg/mL G418 (Geneticin®, Invitrogen #11811-031 or #10131-027). Genotype 1a and genotype 1b replicon-containing cell lines contain approximately 1000 and 2000 RNA genome equivalents per cell, respectively, when maintained in a subconfluent monolayer in the presence of 1 mg/mL G418. For compound testing, G418 is eliminated and the FBS concentration is reduced to 2%.
# (§2) Genotype 1b (BB7) and 1a (H77) cells are seeded in 96-well plates at a sub-confluent density (7000 cells/well) in medium containing 2% FBS without G418. […] The amounts of HCV, rRNA and GAPDH RNAs are quantified using the TaqMan RT-PCR assay.
# [2] = test system: GAPDH RNA, Huh7-1a replicon cells; experiment: GAPDH RNA in genotype 1a (H77) replicon cells; assay type: cell-based; settings: Homo sapiens, 72 h, read-out: GAPDH EC50
# Procedure: as §1, §2
# [3] = test system: Huh7-BB7 cells; experiment: Selection of replicon variants with reduced susceptibility, Study B; assay type: cell-based, HCV genotype 1b; settings: prolonged treatment
# Procedure: Huh7-BB7 cells are plated at a density of 2-3×10^5 cells per T25 flask and cultured in DMEM medium with 2% FCS in the absence of G418. The cells are treated with DMSO as a control, or HCV-796 alone at 40 and 80 nM, or SCH 503034 alone at 200, 400, 600 and 800 nM, or a combination of HCV-796 and SCH 503034 at 40/400, 80/400, 40/800 and 80/800 nM, respectively, for HCV-796 and SCH 503034. The DMSO concentration in both drug-treated and control cells is 0.5% (v/v). Tissue culture plates are incubated in a 37° C. incubator containing 5% CO2. When cells reach about 80% confluence (about 2-3 days), cells are passaged in a 1:3 dilution and the old medium is replaced with fresh medium containing the compounds at the respective concentrations. Cell pellets containing […] are collected during each passage, and monitored for HCV RNA using quantitative Taqman RT-PCR as described above. […]
# Drug susceptibility of the replicon variants is evaluated as previously described in the section “Intracellular antiviral activities in HCV Replicon”. […] The plate is incubated for 72 hours at 37° C. and 5% CO2 before quantification of HCV and GAPDH RNAs. The amounts of HCV, rRNA and GAPDH RNAs are quantified using the TaqMan RT-PCR assay as described above (see Quantification of HCV and 18S Ribosomal RNAs).
Compound,EC50 [1] [µM],EC50 [2] [µM],Selection of resistant replicon variants ([3]; up to 80 nM HCV-796 alone),Selection of resistant replicon variants ([3]; 800 nM SCH 503034 alone)
"CNC(=O)c1c(-c2ccc(F)cc2)oc2cc(N(CCO)S(C)(=O)=O)c(C3CC3)cc12 [HCV-796, 5-cyclopropyl-2-(4-fluoro-phenyl)-6-[(2-hydroxy-ethyl)-methanesulfonyl-amino]-benzofuran-3-carboxylic acid methylamide]",> 2.43,> 5.6,selection of replicon variants that have reduced susceptibility,–
"CC(C)(C)NC(=O)N[C@H](C(=O)N1C[C@H]2[C@@H]([C@H]1C(=O)NC(CC1CCC1)C(=O)C(N)=O)C2(C)C)C(C)(C)C (stereo partly drawn) [SCH 503034, (1R,5S)—N-[3-amino-1-(cyclobutylmethyl)-2,3-dioxopropyl]-3-[2(S)-[[[(1,1-dimethylethyl)amino]carbonyl]amino]-3,3-dimethyl-1-oxobutyl]-6,6-dimethyl-3-azabicyclo[3.1.0]hexan-2(S)-carboxamide]",> 3.2,> 3.2,–,selection of replicon variants that have reduced susceptibility
